{
  "source": "ChEMBL document CHEMBL3044595",
  "about": "“Bioactivity of latifolin and its derivatives against termites and fungi” (2009)",
  "key": {"Reticulitermes speratus [1]": {"tested_on": "Reticulitermes speratus", "assay": "Ratio of antifeedant activity for compound to antifeedant activity for latifolin against Reticulitermes speratus at 3% measured after 14 days", "format": "functional"}, "Reticulitermes speratus [2]": {"tested_on": "Reticulitermes speratus", "assay": "Ratio of antitermite activity for compound to antitermite activity for latifolin against Reticulitermes speratus at 3% measured after 14 days", "format": "functional"}, "Reticulitermes speratus [3]": {"tested_on": "Reticulitermes speratus", "assay": "Antitermite activity against Reticulitermes speratus in compound pretreated paper disks assessed as mortality at 3% measured after 14 days", "format": "functional"}, "Reticulitermes speratus [4]": {"tested_on": "Reticulitermes speratus", "assay": "Antifeedant activity against Reticulitermes speratus in compound pretreated paper disks assessed as mass loss of the paper disk at 3% measured after 14 days (reference value: 7.67 mg)", "format": "functional"}, "Trametes versicolor [5]": {"tested_on": "Trametes versicolor", "assay": "Antifungal activity against Trametes versicolor NBRC 30340 assessed as diameter of mycelial growth at 5 ug/cm'2 at 25.5 degC after 5 days", "format": "functional"}, "Fomitopsis palustris [6]": {"tested_on": "Fomitopsis palustris", "assay": "Antifungal activity against Fomitopsis palustris NBRC 30339 assessed as diameter of mycelial growth at 5 ug/cm'2 at 25.5 degC after 14 days", "format": "functional"}, "Rhizopus arrhizus": {"tested_on": "Rhizopus arrhizus", "assay": "Antifungal activity against Rhizopus oryzae NBRC 31005 assessed as mycelial growth inhibition at 5 ug/cm'2 at 25.5 degC after 36 hr", "format": "functional, organism-based"}, "[7]": {"tested_on": "Cladosporium cladosporioides", "assay": "Antifungal activity against Cladosporium cladosporioides NBRC 6348 assessed as diameter of mycelial growth at 5 ug/cm'2 at 25.5 degC after 20 days", "format": "functional"}, "Trametes versicolor [8]": {"tested_on": "Trametes versicolor", "assay": "Antifungal activity against Trametes versicolor NBRC 30340 assessed as mycelial growth inhibition at 5 ug/cm'2 at 25.5 degC after 5 days", "format": "functional"}, "Fomitopsis palustris [9]": {"tested_on": "Fomitopsis palustris", "assay": "Antifungal activity against Fomitopsis palustris NBRC 30339 assessed as mycelial growth inhibition at 5 ug/cm2 at 25.5 degC after 14 days", "format": "functional"}},
  "note": "Activity calls are given as the source filed them. The rule behind the calls is not given here.",
  "data": [
    {"smiles": "C=C[C@H](c1ccccc1OC)c1cc(O)c(OC)cc1OC", "note": "[2'-O-METHYLLATIFOLIN]", "values": [
      {"measurement": "Ratio", "setting": "Reticulitermes speratus [1]", "result": 1.98},
      {"measurement": "Ratio", "setting": "Reticulitermes speratus [2]", "result": 1.75},
      {"measurement": "mortality", "setting": "Reticulitermes speratus [3]", "result": 46.7, "unit": "%"},
      {"measurement": "Activity", "setting": "Reticulitermes speratus [4]", "result": 0.82, "unit": "mg"},
      {"measurement": "Activity", "setting": "Trametes versicolor [5]", "result": 60, "unit": "mm"},
      {"measurement": "Activity", "setting": "Fomitopsis palustris [6]", "result": 42.5, "unit": "mm"},
      {"measurement": "inhibition", "setting": "Rhizopus arrhizus", "result": "inactive"},
      {"measurement": "Activity", "setting": "[7]", "result": 30, "unit": "mm"},
      {"measurement": "inhibition (INH)", "setting": "Trametes versicolor [8]", "result": 16.5, "unit": "%"},
      {"measurement": "inhibition (INH)", "setting": "Fomitopsis palustris [9]", "result": 18.3, "unit": "%"}
    ]},
    {"smiles": "C=C[C@H](c1ccccc1O)c1cc(OC)c(OC)cc1OC", "note": "[5-O-METHYLLATIFOLIN]", "values": [
      {"measurement": "Ratio", "setting": "Reticulitermes speratus [1]", "result": 3.25},
      {"measurement": "Ratio", "setting": "Reticulitermes speratus [2]", "result": 1.13},
      {"measurement": "mortality", "setting": "Reticulitermes speratus [3]", "result": 30, "unit": "%"},
      {"measurement": "Activity", "setting": "Reticulitermes speratus [4]", "result": 1.29, "unit": "mg"},
      {"measurement": "Activity", "setting": "Trametes versicolor [5]", "result": 62.3, "unit": "mm"},
      {"measurement": "Activity", "setting": "Fomitopsis palustris [6]", "result": 52.3, "unit": "mm"},
      {"measurement": "inhibition", "setting": "Rhizopus arrhizus", "result": "inactive"},
      {"measurement": "Activity", "setting": "[7]", "result": 29.2, "unit": "mm"},
      {"measurement": "inhibition (INH)", "setting": "Trametes versicolor [8]", "result": 13.2, "unit": "%"},
      {"measurement": "inhibition (INH)", "setting": "Fomitopsis palustris [9]", "result": -0.5, "unit": "%"}
    ]},
    {"smiles": "C=C[C@@H](c1cc(OC(C)=O)c(OC)cc1OC)c1ccccc1OC(C)=O", "note": "[LATIFOLIN DIACETATE]", "values": [
      {"measurement": "Ratio", "setting": "Reticulitermes speratus [1]", "result": 2.89},
      {"measurement": "Ratio", "setting": "Reticulitermes speratus [2]", "result": 2},
      {"measurement": "mortality", "setting": "Reticulitermes speratus [3]", "result": 53.3, "unit": "%"},
      {"measurement": "Activity", "setting": "Reticulitermes speratus [4]", "result": 1.13, "unit": "mg"},
      {"measurement": "Activity", "setting": "Trametes versicolor [5]", "result": 56.2, "unit": "mm"},
      {"measurement": "Activity", "setting": "Fomitopsis palustris [6]", "result": 51.3, "unit": "mm"},
      {"measurement": "inhibition", "setting": "Rhizopus arrhizus", "result": "inactive"},
      {"measurement": "Activity", "setting": "[7]", "result": 28.7, "unit": "mm"},
      {"measurement": "inhibition (INH)", "setting": "Trametes versicolor [8]", "result": 21.8, "unit": "%"},
      {"measurement": "inhibition (INH)", "setting": "Fomitopsis palustris [9]", "result": 1.4, "unit": "%"}
    ]},
    {"smiles": "C=C[C@H](c1ccccc1OC)c1cc(OC)c(OC)cc1OC", "note": "[LATIFOLIN DIMETHYL ETHER]", "values": [
      {"measurement": "Ratio", "setting": "Reticulitermes speratus [1]", "result": 3.42},
      {"measurement": "Ratio", "setting": "Reticulitermes speratus [2]", "result": 2.13},
      {"measurement": "mortality", "setting": "Reticulitermes speratus [3]", "result": 56.7, "unit": "%"},
      {"measurement": "Activity", "setting": "Reticulitermes speratus [4]", "result": 1.27, "unit": "mg"},
      {"measurement": "Activity", "setting": "Trametes versicolor [5]", "result": 60.8, "unit": "mm"},
      {"measurement": "Activity", "setting": "Fomitopsis palustris [6]", "result": 57, "unit": "mm"},
      {"measurement": "inhibition", "setting": "Rhizopus arrhizus", "result": "inactive"},
      {"measurement": "Activity", "setting": "[7]", "result": 29.3, "unit": "mm"},
      {"measurement": "inhibition (INH)", "setting": "Trametes versicolor [8]", "result": 15.3, "unit": "%"},
      {"measurement": "inhibition (INH)", "setting": "Fomitopsis palustris [9]", "result": -9.6, "unit": "%"}
    ]},
    {"smiles": "C=C[C@H](c1ccccc1O)c1cc(O)c(OC)cc1OC", "note": "[LATIFOLIN]", "values": [
      {"measurement": "mortality", "setting": "Reticulitermes speratus [3]", "result": 26.7, "unit": "%"},
      {"measurement": "Activity", "setting": "Reticulitermes speratus [4]", "result": 0.39, "unit": "mg"},
      {"measurement": "Activity", "setting": "Trametes versicolor [5]", "result": 15, "unit": "mm"},
      {"measurement": "Activity", "setting": "Fomitopsis palustris [6]", "result": 32.5, "unit": "mm"},
      {"measurement": "inhibition", "setting": "Rhizopus arrhizus", "result": "inactive"},
      {"measurement": "Activity", "setting": "[7]", "result": 26.2, "unit": "mm"},
      {"measurement": "inhibition (INH)", "setting": "Trametes versicolor [8]", "result": 79.1, "unit": "%"},
      {"measurement": "inhibition (INH)", "setting": "Fomitopsis palustris [9]", "result": 37.5, "unit": "%"}
    ]}
  ]
}
